Assay results reported in ChEMBL document CHEMBL3045638, “Quantitative structure-activity relationship of terpenoid aphid antifeedants” (2008).

Each compound was assayed on Lipaphis erysimi (assay: Antifeedant activity against apterous adult stage of Lipaphis erysimi (mustard aphids) in compound pre-treated cabbage leaves assessed as antifeedant ratio measured after 48 hr).
Assay type: functional

Row | SMILES | Ratio
1 | CC1(C)C2CC=C(CCO)C1C2 (stereo unspecified) [Nopol] | 0.47
2 | CCCOCCC1=CCC2CC1C2(C)C (stereo unspecified) | 0.504
3 | CC(=O)OCCC1=CCC2CC1C2(C)C (stereo unspecified) | 0.572
4 | CC(=O)OC1CC(C(C)(C)O)CC=C1C (stereo unspecified) | 0.476
5 | CC(=O)OC1CC(C)CCC1C(C)C (stereo unspecified) | 0.533
6 | CCCC(CCCC1C2CCC(C2)C1(C)C)OC(C)=O (stereo unspecified) | 0.813
7 | CCC(CCCC1C2CCC(C2)C1(C)C)OC(C)=O (stereo unspecified) | 0.83
8 | CC1=CCC(C(C)(C)O)CC1OC=O (stereo unspecified) | 0.42
9 | CC1(C)C2CC=C(CCOC=O)C1C2 (stereo unspecified) | 0.518
10 | CC1CCC(C(C)C)C(O)C1 (stereo unspecified) [MENTHOL] | 0.584
11 | CC1=CCC(C(C)(C)O)CC1O (stereo unspecified) [SOBREROL] | 0.463
12 | CCC(=O)OC1CC(C)CCC1C(C)C (stereo unspecified) | 0.505
13 | CCC(=O)OCCC1=CCC2CC1C2(C)C (stereo unspecified) | 0.63
14 | C=C(C)C1CC=C(CCOC(C)=O)CC1 (stereo unspecified) | 0.674
15 | CCC(CCC1C2CCC(C2)C1(C)C)C(C)OC(C)=O (stereo unspecified) | 0.786
16 | COCCC1=CCC2CC1C2(C)C (stereo unspecified) | 0.548
17 | CCOCCC1=CCC2CC1C2(C)C (stereo unspecified) | 0.522
18 | CCC(=O)OC1CC(C(C)(C)O)CC=C1C (stereo unspecified) | 0.526
19 | CC1(C)C2CC3OC3(C)C1C2 (stereo unspecified) | 0.415
20 | CC(=O)OCCC1C2CCC(C2)C1(C)C (stereo unspecified) | 0.628
21 | C=C(C)C1CC=C(CCOC(=O)CC)CC1 (stereo unspecified) | 0.701
